Here are results for ten compounds from ChEMBL document CHEMBL3826924, “Charged Nonclassical Antifolates with Activity Against Gram-Positive and Gram-Negative Pathogens” (ACS Med Chem Lett, 2016).

In brackets after ≈: the same amount, converted by molar mass. Activity calls are given as the source filed them. The rule behind the calls is not given here. Bounds are passed on as bounds.

The subject of series [1] is Escherichia coli. As to the kind of experiment: Antibacterial activity against Escherichia coli NR698 harboring imp gene deletion mutant by alamar blue reagent based micro dilution broth assay. It counts as functional.
Series [2] relates to Escherichia coli. As to the kind of experiment: Antibacterial activity against Escherichia coli ATCC 25922 by alamar blue reagent based micro dilution broth assay. It counts as functional.
Series [3] has as its system Escherichia coli. As to the kind of experiment: microbe, parasite or virus in culture.
Series [4] in a line: Cytotoxicity against HDF at 100 uM after 4 hrs by alamar blue assay. The conditions noted are these: human.
In series [5] the test system is Staphylococcus aureus. As to the kind of experiment: microbe, parasite or virus in culture. The settings on record: ATCC 43300, 18 h.
Series [6] in a line: Cytotoxicity against human MCF10A cells after 4 hrs by alamar blue assay. The conditions noted are these: MCF-10A. Format: cell-based.
In series [7] the test system is Escherichia coli. As to the kind of experiment: Antibacterial activity against Escherichia coli harboring macB gene deletion mutant by alamar blue reagent based micro dilution broth assay. It counts as functional, organism-based.
Series [8] relates to HepG2. As to the kind of experiment: Cytotoxicity against human HepG2 cells at 100 uM after 4 hrs by alamar blue assay. The conditions noted are these: hepg2, 4 h. Format: cell-based.
Series [9] concerns Staphylococcus aureus. Nature of the series: Bactericidal activity against Staphylococcus aureus ATCC 43300. Format: functional, organism-based.
For series [10], the system named is Escherichia coli. Nature of the series: Antibacterial activity against Escherichia coli harboring acrF gene deletion mutant by alamar blue reagent based micro dilution broth assay. Format: functional, organism-based.
The test system of series [11] is Escherichia coli. Nature of the series: Antibacterial activity against Escherichia coli JW0451 harboring AcrB gene deletion mutant by alamar blue reagent based micro dilution broth assay. Format: functional, organism-based.
Series [12] has as its system Escherichia coli. Nature of the series: Antibacterial activity against Escherichia coli harboring emrB gene deletion mutant by alamar blue reagent based micro dilution broth assay. It counts as functional, organism-based.
The nature of series [13]: Ratio of MIC for Escherichia coli ATCC 25922 to MIC for Escherichia coli NR698 harboring imp gene deletion mutant. It counts as functional.
Series [14] relates to Escherichia coli. As to the kind of experiment: Antibacterial activity against Escherichia coli harboring ompF gene deletion mutant by alamar blue reagent based micro dilution broth assay. It counts as functional.
The test system of series [15] is Escherichia coli. Nature of the series: Antibacterial activity against Escherichia coli harboring efflux pump deletion mutant after 8 hrs. Format: functional.
In series [16] the test system is Staphylococcus aureus. Nature of the series: Antibacterial activity against methicillin-resistant Staphylococcus aureus by agar dilution method. Format: functional.
The test system of series [17] is Escherichia coli. As to the kind of experiment: Antibacterial activity against Escherichia coli W4573 after 8 hrs. Format: functional. The settings on record: W4573, 8 h.
Series [18] has as its system Escherichia coli. As to the kind of experiment: Antibacterial activity against Escherichia coli harboring ompC gene deletion mutant by alamar blue reagent based micro dilution broth assay. Format: functional.
The subject of series [19] is HepG2. Nature of the series: Cytotoxicity against human HepG2 cells after 4 hrs by alamar blue assay. It counts as cell-based. The settings on record: HepG2, 4 h.
The nature of series [20]: Therapeutic index, ratio of IC50 for human MCF10 cells to MIC for Staphylococcus aureus ATCC 43300. Format: cell-based. The conditions noted are these: read-out: TI.
Series [21] in a line: Therapeutic index, ratio of IC50 for HDF to MIC for Staphylococcus aureus ATCC 43300. The settings on record: human, read-out: TI.
Series [22] can be described thus: Therapeutic index, ratio of IC50 for human HepG2 cells to MIC for Staphylococcus aureus ATCC 43300. Format: cell-based. The conditions noted are these: read-out: TI.
Series [23] is described as follows: Therapeutic index, ratio of IC50 for human MCF10A cells to MIC for Staphylococcus aureus ATCC 43300. Format: cell-based, MCF-10A. The conditions noted are these: read-out: TI.
A further series concerns the target Cytochrome P450 2D6 (Homo sapiens, UniProt P10635). Nature of the series: Inhibition of human CYP2D6 using AMMC as substrate assessed as reduction in 3-[-2-(N,Ndiethylamino)ethyl]-7-hydroxy-4-methylcoumarin hydrochloride metabolite formation incubated for 30 mins by high throughput assay. Format: ADME. The settings on record: read-out: INH.
The nature of series [24]: Primary phase half life in mouse liver microsomes at 0.5 ug/ml in presence of NADPH by UPLC analysis. The conditions noted are these: read-out: alphat1/2. Format: ADME.
Series [25] in a line: Cytotoxicity against HDF after 4 hrs by alamar blue assay. The settings on record: Homo sapiens.
Series [26] in a line: Terminal half life in mouse liver microsomes at 0.5 ug/ml in presence of NADPH by UPLC analysis. The settings on record: read-out: beta t1/2. Format: ADME.
The target of the next series is Cytochrome P450 3A4 (Homo sapiens, UniProt P08684). As to the kind of experiment: Inhibition of human CYP3A4 using BQ as substrate assessed as reduction in 7-hydroxyquinoline metabolite formation incubated for 30 mins by high throughput assay. The conditions noted are these: read-out: INH. Format: ADME.
Chain of Cytochrome P450 3A4 (P08684 whole entry): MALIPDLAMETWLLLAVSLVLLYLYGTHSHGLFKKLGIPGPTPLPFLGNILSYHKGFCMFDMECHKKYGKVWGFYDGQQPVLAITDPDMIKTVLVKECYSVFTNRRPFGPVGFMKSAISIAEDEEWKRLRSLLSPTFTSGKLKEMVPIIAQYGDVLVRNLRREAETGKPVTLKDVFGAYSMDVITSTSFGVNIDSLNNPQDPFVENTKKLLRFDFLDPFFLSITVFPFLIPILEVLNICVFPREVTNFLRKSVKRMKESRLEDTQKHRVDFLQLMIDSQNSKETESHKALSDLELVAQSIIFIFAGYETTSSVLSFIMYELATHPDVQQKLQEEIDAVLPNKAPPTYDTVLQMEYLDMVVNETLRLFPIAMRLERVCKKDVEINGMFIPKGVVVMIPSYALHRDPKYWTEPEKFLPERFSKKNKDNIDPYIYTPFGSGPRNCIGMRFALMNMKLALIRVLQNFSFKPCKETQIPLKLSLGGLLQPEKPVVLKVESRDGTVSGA

Chain of Cytochrome P450 2D6 (P10635 whole entry): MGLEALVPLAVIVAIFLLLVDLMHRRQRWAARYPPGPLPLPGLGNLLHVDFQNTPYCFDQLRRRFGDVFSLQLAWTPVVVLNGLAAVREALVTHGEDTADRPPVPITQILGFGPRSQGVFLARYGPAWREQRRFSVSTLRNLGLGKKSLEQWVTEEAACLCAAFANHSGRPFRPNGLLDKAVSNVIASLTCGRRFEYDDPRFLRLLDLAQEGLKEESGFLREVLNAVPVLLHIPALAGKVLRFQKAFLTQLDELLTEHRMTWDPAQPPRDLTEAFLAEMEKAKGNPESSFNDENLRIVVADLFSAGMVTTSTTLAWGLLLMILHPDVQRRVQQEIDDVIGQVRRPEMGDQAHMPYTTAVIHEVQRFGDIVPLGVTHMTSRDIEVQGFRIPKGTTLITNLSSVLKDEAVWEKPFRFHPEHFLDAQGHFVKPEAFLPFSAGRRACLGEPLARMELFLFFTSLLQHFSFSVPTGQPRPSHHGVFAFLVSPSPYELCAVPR

`COc1cc(Cc2cnc(N)nc2N)cc(OC)c1OC` [TRIMETHOPRIM]: the MIC against Escherichia coli [1] worked out at 9.8 ng/mL (≈ 0.0338 µM); against Escherichia coli [2], 0.312 µg/mL (≈ 1.08 µM); against Escherichia coli [3] it was 0.312 µg/mL (≈ 1.08 µM).
Regarding `CCc1nc(N)nc(N)c1C#C[C@H](C)c1cc(OC)cc(-c2ccc(C(=O)O)cc2)c1`, the figures for the MIC against Escherichia coli [1], against Staphylococcus aureus [5] and with Escherichia coli [2] were 2.4 ng/mL (≈ 0.00576 µM), 0.0098 µg/mL (≈ 0.0235 µM) and 10 µg/mL (≈ 24 µM), respectively. The Activity entry (in series [4]; with HepG2 [8]) was “Non-toxic” in each case. In addition, the IC50 in series [6] was > 100 µM. The outcome in the series with Escherichia coli [7], with Staphylococcus aureus [9], with Escherichia coli [10], in the series with Escherichia coli [11] and in the series with Escherichia coli [12] was Active.
Consider `CCc1nc(N)nc(N)c1C#CCc1cc(-c2ccccc2C(=O)O)ccc1OC`, for which the MIC against Escherichia coli [1] is 20000 ng/mL (≈ 49.7 µM); against Staphylococcus aureus [5], > 20 µg/mL; in the series on Escherichia coli [2], > 32 µg/mL. The Activity entry (in [4]; with HepG2 [8]) was “Non-toxic” throughout. In addition, the outcome in the series on Escherichia coli [7], with Escherichia coli [10], in the series on Escherichia coli [11] and in the series with Escherichia coli [12] was Active. The Ratio in series [13] is 2000.
As for `CN(Cc1cnc2nc(N)nc(N)c2n1)c1ccc(C(=O)N[C@@H](CCC(=O)O)C(=O)O)cc1` [METHOTREXATE], the MIC is ≥ 40 µg/mL with Escherichia coli [14]; 40000 ng/mL (≈ 88 µM) in the series on Escherichia coli [1]; 64 µM (≈ 29.1 µg/mL) against Escherichia coli [15]; > 40 µg/mL in the series on Staphylococcus aureus [5]; > 40 µg/mL with Escherichia coli [2]; 1000 µM (≈ 454 µg/mL) in the series on Escherichia coli [17]. Besides, in the series with Escherichia coli [18], the MIC was ≥ 40 µg/mL. The same compound returned an MIC50 with Staphylococcus aureus [16] of 20 µg/mL (≈ 44 µM). For the same compound, the MIC90 in the series on Staphylococcus aureus [16] stood at 100 µg/mL (≈ 220 µM).
As for `CCc1nc(N)nc(N)c1C#C[C@@H](C)c1cc(OC)cc(-c2ccc(C(=O)O)cc2)c1`, the MIC in the series on Escherichia coli [1] was 2.4 ng/mL (≈ 0.00576 µM); in the series with Staphylococcus aureus [5], 0.0098 µg/mL (≈ 0.0235 µM); in the series on Escherichia coli [2], 10 µg/mL (≈ 24 µM). In addition, the Activity result (in series [4]; in the series with HepG2 [8]) was “Non-toxic” in each case. For the same compound, in [6], the IC50 is > 100 µM. Besides, the result in the series on Escherichia coli [7], with Staphylococcus aureus [9], in the series with Escherichia coli [10], with Escherichia coli [11] and in the series on Escherichia coli [12] was Active.
`CCc1nc(N)nc(N)c1C#CCc1cc(-c2cccc(C(=O)O)c2)ccc1OC.O=C(O)C(F)(F)F`: the figures for the MIC against Escherichia coli [1], against Staphylococcus aureus [5] and in the series on Escherichia coli [2] were 39.1 ng/mL, 0.625 µg/mL and > 20 µg/mL, respectively. The Activity result (in [4]; in the series on HepG2 [8]) was “Non-toxic” in each case. The result with Escherichia coli [7], in the series with Escherichia coli [10], with Escherichia coli [11] and with Escherichia coli [12] was Active. In addition, the Ratio in [13] amounted to 2000.
As for `CC(=O)O.CCc1nc(N)nc(N)c1C#C[C@H](C)c1cc(-c2ccc(C(=O)O)cc2)ccc1OC`, the MIC against Escherichia coli [1] is 39.1 ng/mL; against Staphylococcus aureus [5], 0.625 µg/mL; with Escherichia coli [2], > 20 µg/mL. In addition, the Activity result (in series [4]; in the series with HepG2 [8]) was “Non-toxic” throughout. Further, the IC50 in series [6] is > 100 µM. In addition, the result in the series with Escherichia coli [7], with Escherichia coli [10], with Escherichia coli [11] and with Escherichia coli [12] was Active.
Take `CCc1nc(N)nc(N)c1C#CCc1cc(-c2ccc(C(=O)O)cc2)ccc1OC`: the IC50 in the series on HepG2 [19] was > 500 µM; in [6], > 100 µM; on Cytochrome P450 2D6 it was > 50 µM; in series [25] it was > 500 µM; on Cytochrome P450 3A4 it was > 50 µM. Also, the MIC with Escherichia coli [1] is 9.8 ng/mL (≈ 0.0244 µM); against Staphylococcus aureus [5], 0.0195 µg/mL (≈ 0.0485 µM); in the series with Escherichia coli [2] it was > 20 µg/mL. Moreover, the selectivity ratio in [20], in [21], in [22] and in series [23] was > 500000 throughout. In addition, the result in the series with Escherichia coli [7], in the series on Escherichia coli [10], in the series on Escherichia coli [11] and with Escherichia coli [12] was Active. Also, the half-life at 0.5 ug/ml in series [24] came to 99 min; in series [26] it was 87 min. In series [13], the Ratio was determined as 2000.
With `CC(=O)O.CCc1nc(N)nc(N)c1C#C[C@@H](C)c1cc(-c2ccc(C(=O)O)cc2)ccc1OC`, the MIC in the series with Escherichia coli [1] is 1.2 ng/mL; against Staphylococcus aureus [5], 0.0195 µg/mL; with Escherichia coli [2] it was 20 µg/mL. For the same compound, the Activity result (in series [4]; in the series with HepG2 [8]) was “Non-toxic” throughout. Moreover, the IC50 in series [6] was > 100 µM. For the same compound, the result in the series on Escherichia coli [7], in the series on Escherichia coli [10], with Escherichia coli [11] and with Escherichia coli [12] was Active.
As for `CCc1nc(N)nc(N)c1C#CCc1cc(OC)cc(-c2ccc(C(=O)O)cc2)c1.O=C(O)C(F)(F)F`, the MIC is 4.9 ng/mL against Escherichia coli [1], 0.0195 µg/mL in the series with Staphylococcus aureus [5] and > 20 µg/mL in the series with Escherichia coli [2]. Also, the Activity result (in series [4]; in the series on HepG2 [8]) was “Non-toxic” throughout. In [6], the IC50 is > 100 µM. Also, the outcome in the series on Escherichia coli [7], in the series with Staphylococcus aureus [9], with Escherichia coli [10], with Escherichia coli [11] and in the series on Escherichia coli [12] was Active.
